According to US4877795A, “4H-quinolizin-4-one compounds useful for the treatment of allergic bronchial asthma, allergic rhinitis atropic dermatitis and the like” (Kissei Pharmaceutical Co., Ltd., priority 1987, dated 1989):

Tests used:
[1] = system: IgG; experiment: Determination of Igs produced in in vitro culture: inhibition of IgG secreted by spleen cells (adoptive secondary immune response to DNP-As), ELISA; format: cell-based, BALB/c mice; settings: 4 days culture; for inhibition at 40 µg/mL: 40.0 μg/ml; for inhibition at 5 µg/mL: 5.0 μg/ml; for inhibition at 2.5 µg/mL: 2.5 μg/ml; for inhibition at 10 µg/mL: 10.0 μg/ml
Method: (§1) Determination of Igs produced in in vitro culture
(§2) BALB/c mice were immunized intraperitoneally with 5 μg of DNP-As adsorbed in 4 mg aluminum hydroxide gel. 4 weeks after the immunization, the spleens were excised from the mice and 5×10^7 spleen cells were transferred intravenously into the recipient mice which had been exposed to 600 rad of X-ray irradiation. Immediately after cell transfer, the recipients were then immunized intraperitoneally with 5 μg of DNP-As adsorbed in 4 mg aluminum hydroxide gel to induce adoptive secondary immune response. Further 4 weeks after the immunization of recipients, the spleens were excised from them and the spleen cell suspensions 5×10^6 cells/ml were cultured with or without a compound to be tested in 96-well micro plates at 37° C. for 4 days. IgE and IgG secreted into the culture supernatant was each determined correspondingly by ELISA and the inhibitory effect was calculated according to the following equation. [formula]

[2] = system: IgE; experiment: Determination of Igs produced in in vitro culture: inhibition of IgE secreted by spleen cells (adoptive secondary immune response to DNP-As), ELISA; format: cell-based, BALB/c mice; settings: 4 days culture; for inhibition at 40 µg/mL: 40.0 μg/ml; for inhibition at 5 µg/mL: 5.0 μg/ml; for inhibition at 2.5 µg/mL: 2.5 μg/ml; for inhibition at 10 µg/mL: 10.0 μg/ml
Method: as §1, §2

## CSc1c(C#N)c(=O)n2ccccc2c1C(=O)N(C(C)C)C(C)C [S-63, 3-Cyano-N,N-diisopropyl-2-methylthio-4H-quinolizin-4-one-1-carboxamide]
[1]; Mus musculus, 96 h
  inhibition at 40 µg/mL: 47%
[2]; Mus musculus, 96 h
  inhibition at 40 µg/mL: 85%

## CSc1c(C#N)c(=O)n2ccccc2c1C(=O)N(CC(C)C)CC(C)C [S-64, 3-Cyano-N,N-diisobutyl-2-methylthio-4H-quinolizin-4-one-1-carboxamide]
[1]; Mus musculus, 96 h
  inhibition at 5 µg/mL: 41%
[2]; Mus musculus, 96 h
  inhibition at 5 µg/mL: 65%

## CCCCCCN(CCCCCC)C(=O)c1c(SC)c(C#N)c(=O)n2ccccc12 [S-65, 3-Cyano-N,N-dihexyl-2-methylthio-4H-quinolizin-4-one-1-carboxamide]
[1]; Mus musculus, 96 h
  inhibition at 2.5 µg/mL: 40%
[2]; Mus musculus, 96 h
  inhibition at 2.5 µg/mL: 87%

## CSc1c(C#N)c(=O)n2ccccc2c1C(=O)N(C)Cc1ccccc1 [S-66, N-Benzyl-3-cyano-N-methyl-2-methylthio-4H-quinolizin-4-one-1-carboxamide]
[1]; Mus musculus, 96 h
  inhibition at 40 µg/mL: 35%
[2]; Mus musculus, 96 h
  inhibition at 40 µg/mL: 64%

## CSc1c(C#N)c(=O)n2ccccc2c1C(=O)N(CCNc1ccccc1)c1ccccc1 [S-67, 3-Cyano-2-methylthio-N-phenyl-N-(2-phenylaminoethyl)-4H-quinolizin-4-one-1-carboxamide]
[1]; Mus musculus, 96 h
  inhibition at 2.5 µg/mL: 46%
[2]; Mus musculus, 96 h
  inhibition at 2.5 µg/mL: 68%

## CSc1c(C#N)c(=O)n2ccccc2c1C(=O)N(Cc1ccccc1)C(C)C [S-68, N-Benzyl-3-cyano-N-isopropyl-2-methylthio-4H-quinolizin-4-one-1-carboxamide]
[1]; Mus musculus, 96 h
  inhibition at 2.5 µg/mL: 7%
[2]; Mus musculus, 96 h
  inhibition at 2.5 µg/mL: 41%

## CSc1c(C#N)c(=O)n2ccccc2c1C(=O)N(C(C)C)C1CCCCC1 [S-69, 3-Cyano-N-cyclohexyl-N-isopropyl-2-methylthio-4H-quinolizin-4-one-1-carboxamide]
[1]; Mus musculus, 96 h
  inhibition at 2.5 µg/mL: 22%
[2]; Mus musculus, 96 h
  inhibition at 2.5 µg/mL: 56%

## C=CCN(C(=O)c1c(SC)c(C#N)c(=O)n2ccccc12)C1CCCCC1 [S-70, N-Allyl-3-cyano-N-cyclohexyl-2-methylthio-4H-quinolizin-4-one-1-carboxamide]
[1]; Mus musculus, 96 h
  inhibition at 5 µg/mL: 32%
[2]; Mus musculus, 96 h
  inhibition at 5 µg/mL: 65%

## CSc1c(C#N)c(=O)n2ccccc2c1C(=O)NCCCc1ccccc1 [S-71]
[1]; Mus musculus, 96 h
  inhibition at 5 µg/mL: 35%
[2]; Mus musculus, 96 h
  inhibition at 5 µg/mL: 63%

## CSc1c(C#N)c(=O)n2ccccc2c1C(=O)NC1CCCCC1 [S-72, 3-Cyano-N-cyclohexyl-2-methylthio-4H-quinolizin-4-one-1-carboxamide]
[1]; Mus musculus, 96 h
  inhibition at 5 µg/mL: -5%
[2]; Mus musculus, 96 h
  inhibition at 5 µg/mL: 46%

## CSc1c(C#N)c(=O)n2ccccc2c1C(=O)NCc1ccccc1 [S-73, N-Benzyl-3-cyano-2-methylthio-4H-qunolizin-4-one-1-carboxamide]
[1]; Mus musculus, 96 h
  inhibition at 40 µg/mL: 24%
[2]; Mus musculus, 96 h
  inhibition at 40 µg/mL: 55%

## CSc1c(C#N)c(=O)n2ccccc2c1C(=O)Nc1ccc(Nc2ccccc2)cc1 [S-74, N-(4-Anilinophenyl)-3-cyano-2-methylthio-4H-quinolizin-4-one-1-carboxamide]
[1]; Mus musculus, 96 h
  inhibition at 2.5 µg/mL: 10%
[2]; Mus musculus, 96 h
  inhibition at 2.5 µg/mL: 51%

## CSc1c(C#N)c(=O)n2ccccc2c1C(=O)Nc1nc(-c2ccccc2)cs1 [S-75, 3-Cyano-2-methylthio-N-(4-phenyl-2-thiazolyl)-4H-quinolizin-4-one-1-carboxamide]
[1]; Mus musculus, 96 h
  inhibition at 2.5 µg/mL: 25%
[2]; Mus musculus, 96 h
  inhibition at 2.5 µg/mL: 50%

## CSc1c(C#N)c(=O)n2ccccc2c1C(=O)NC1CCCc2ccccc21 (stereo not drawn) [S-76, 3-Cyano-2-methylthio-N-(1,2,3,4-tetrahydro-1-naphthyl)-4H-quinolizin-4-one-1-carboxamide]
[1]; Mus musculus, 96 h
  inhibition at 2.5 µg/mL: 1%
[2]; Mus musculus, 96 h
  inhibition at 2.5 µg/mL: 37%

## COC(=O)c1ccc(CNC(=O)c2c(SC)c(C#N)c(=O)n3ccccc23)cc1 [S-77]
[1]; Mus musculus, 96 h
  inhibition at 5 µg/mL: 10%
[2]; Mus musculus, 96 h
  inhibition at 5 µg/mL: 34%

## CSc1c(C#N)c(=O)n2ccccc2c1C(=O)N1CCC(c2ccccc2)CC1 [S-78, 3-Cyano-2-methylthio-1-(4-phenylpiperidinocarbonyl)-4H-quinolizin-4-one]
[1]; Mus musculus, 96 h
  inhibition at 2.5 µg/mL: 16%
[2]; Mus musculus, 96 h
  inhibition at 2.5 µg/mL: 60%

## CSc1c(C#N)c(=O)n2ccccc2c1C(=O)N1CCCCC1 [S-79, 3-Cyano-2-methylthio-1-piperidinocarbonyl-4H-quinolizin-4-one]
[1]; Mus musculus, 96 h
  inhibition at 40 µg/mL: 13%
[2]; Mus musculus, 96 h
  inhibition at 40 µg/mL: 59%

## CSc1c(C#N)c(=O)n2ccccc2c1C(=O)N1CCC(OC(C)=O)(c2ccccc2)CC1 [S-80, 1-(4-Acetoxy-4-phenylpiperidinocarbonyl)-3-cyano-methylthio-4H-quinolizin-4-one]
[1]; Mus musculus, 96 h
  inhibition at 2.5 µg/mL: 34%
[2]; Mus musculus, 96 h
  inhibition at 2.5 µg/mL: 66%

## CSc1c(C#N)c(=O)n2ccccc2c1C(=O)N1CCCC2CCCCC21 (stereo not drawn) [S-86]
[1]; Mus musculus, 96 h
  inhibition at 2.5 µg/mL: 21%
[2]; Mus musculus, 96 h
  inhibition at 2.5 µg/mL: 46%

## CSc1c(C#N)c(=O)n2ccccc2c1C(=O)N1CCc2ccccc2C1 [S-87, 3-Cyano-2-methylthio-1-(1,2,3,4-tetrahydroisoquinolin-2-ylcarbonyl)-4H-quinolizin-4-one]
[1]; Mus musculus, 96 h
  inhibition at 5 µg/mL: 36%
[2]; Mus musculus, 96 h
  inhibition at 5 µg/mL: 61%

## CSc1c(C#N)c(=O)n2ccccc2c1C(=O)N1CCCc2ccccc21 [S-88, 3-Cyano-2-methylthio-1-(1,2,3,4-tetrahydroquinolin-1-ylcarbonyl)-4H-quinolizin-4-one]
[1]; Mus musculus, 96 h
  inhibition at 2.5 µg/mL: 7%
[2]; Mus musculus, 96 h
  inhibition at 2.5 µg/mL: 40%

## CSc1c(C#N)c(=O)n2ccccc2c1C(=O)N1CCN(Cc2ccc3c(c2)OCO3)CC1 [S-89, 3-Cyano-2-methylthio-1-(4-piperonyl-1-piperadinyl-carbonyl)-4H-quinolizin-4-one]
[1]; Mus musculus, 96 h
  inhibition at 5 µg/mL: 32%
[2]; Mus musculus, 96 h
  inhibition at 5 µg/mL: 58%

## CSc1c(C#N)c(=O)n2ccccc2c1C(=O)N1CCN(Cc2ccccc2)CC1 [S-90, 1-(4-Benzyl-1-piperadinylcarbonyl)-3-cyano-2-methylthio-4H-quinolizin-4-one]
[1]; Mus musculus, 96 h
  inhibition at 5 µg/mL: 14%
[2]; Mus musculus, 96 h
  inhibition at 5 µg/mL: 45%

## CSc1c(C#N)c(=O)n2ccccc2c1C(=O)N1CCN(c2ccccc2)CC1 [S-91, 3-Cyano-2-methylthio-1-(4-phenyl-1-piperadinylcarbonyl)-4H-quinolizin-4-one]
[1]; Mus musculus, 96 h
  inhibition at 2.5 µg/mL: 11%
[2]; Mus musculus, 96 h
  inhibition at 2.5 µg/mL: 39%

## CSc1c(C#N)c(=O)n2ccccc2c1C(C)=O [S-92, 1-Acetyl-3-cyano-2-methylthio-4H-quinolizin-4-one]
[1]; Mus musculus, 96 h
  inhibition at 40 µg/mL: 8%
[2]; Mus musculus, 96 h
  inhibition at 40 µg/mL: 56%

## CCCC(=O)c1c(SC)c(C#N)c(=O)n2ccccc12 [S-93, 1-Butyryl-3-cyano-2-methylthio-4H-quinolizin-4-one]
[1]; Mus musculus, 96 h
  inhibition at 10 µg/mL: 31%
[2]; Mus musculus, 96 h
  inhibition at 10 µg/mL: 62%

## CSc1c(C#N)c(=O)n2ccccc2c1C(=O)CC1CCCCC1 [S-94, 3-Cyano-1-cyclohexylacetyl-2-methylthio-4H-quinolizin-4-one]
[1]; Mus musculus, 96 h, 1.0 μg/ml
  inhibition at 1 µg/mL: 33%
[2]; Mus musculus, 96 h, 1.0 μg/ml
  inhibition at 1 µg/mL: 62%

## CSc1c(C#N)c(=O)n2ccccc2c1C(=O)Cc1ccccc1 [S-95, 3-Cyano-2-methylthio-1-phenylacetyl-4H-quinolizin-4-one]
[1]; Mus musculus, 96 h, 20.0 μg/ml
  inhibition at 20 µg/mL: 47%
[2]; Mus musculus, 96 h, 20.0 μg/ml
  inhibition at 20 µg/mL: 70%

## CSc1c(C#N)c(=O)n2ccccc2c1C(=O)Cc1ccc(Cl)cc1 [S-96, 1-(4-Chlrophenylacetyl)-3-cyano-2-methylthio-4H-quinolizin-4-one]
[1]; Mus musculus, 96 h
  inhibition at 5 µg/mL: 12%
[2]; Mus musculus, 96 h
  inhibition at 5 µg/mL: 41%

## CSc1c(C#N)c(=O)n2ccccc2c1C(=O)Cc1cccc(C)c1 [S-97, 3-Cyano-1-(3-methylphenylacetyl)-2-methylthio-4H-quinolizin-4-one]
[1]; Mus musculus, 96 h
  inhibition at 2.5 µg/mL: 18%
[2]; Mus musculus, 96 h
  inhibition at 2.5 µg/mL: 46%

## CSc1c(C#N)c(=O)n2ccccc2c1C(=O)Cc1ccccc1C [S-98, 3-Cyano-1-(2-methylphenylacetyl)-2-methylthio-4H-quinolizin-4-one]
[1]; Mus musculus, 96 h
  inhibition at 10 µg/mL: 13%
[2]; Mus musculus, 96 h
  inhibition at 10 µg/mL: 38%

## CSc1c(C#N)c(=O)n2ccccc2c1C(=O)Cc1ccc(C)cc1 [S-99, 3-Cyano-1-(4-methylphenylacetyl)-2-methylthio-4H-quinolizin-4-one]
[1]; Mus musculus, 96 h
  inhibition at 10 µg/mL: 1%
[2]; Mus musculus, 96 h
  inhibition at 10 µg/mL: 52%

## CSc1c(C#N)c(=O)n2ccccc2c1C(=O)Cc1ccc(C)cc1C [S-100, 3-Cyano-1-(2,4dimethylphenylacetyl)-2-methylthio-4H-quinolizin-4-one]
[1]; Mus musculus, 96 h
  inhibition at 2.5 µg/mL: 34%
[2]; Mus musculus, 96 h
  inhibition at 2.5 µg/mL: 63%

## CSc1c(C#N)c(=O)n2ccccc2c1C(=O)Cc1ccc(C)c(C)c1 [S-101, 3-Cyano-1-(3,4-dimethylphenylacetyl)-2-methylthio-4H-quinolizin-4-one]
[1]; Mus musculus, 96 h
  inhibition at 40 µg/mL: 13%
[2]; Mus musculus, 96 h
  inhibition at 40 µg/mL: 58%

## COc1ccc(CC(=O)c2c(SC)c(C#N)c(=O)n3ccccc23)cc1 [S-102, 3-Cyano-1-(4-methoxyphenylacetyl)-2-methylthio-4H-quinolizin-4-one]
[1]; Mus musculus, 96 h
  inhibition at 10 µg/mL: 20%
[2]; Mus musculus, 96 h
  inhibition at 10 µg/mL: 52%

## CSc1c(C#N)c(=O)n2ccccc2c1C(=O)Cc1cccc2ccccc12 [S-103, 3-Cyano-2-mehtylthio-1-(1-naphthylacetyl)-4H-quinolizin-4-one]
[1]; Mus musculus, 96 h
  inhibition at 2.5 µg/mL: 15%
[2]; Mus musculus, 96 h
  inhibition at 2.5 µg/mL: 49%

## CSc1c(C#N)c(=O)n2ccccc2c1C(=O)CCc1ccccc1 [S-104, 3-Cyano-2-methylthio-1-(3-phenylpropionyl)-4H-quinolizin-4-one]
[1]; Mus musculus, 96 h
  inhibition at 2.5 µg/mL: 39%
[2]; Mus musculus, 96 h
  inhibition at 2.5 µg/mL: 66%

## CSc1c(C#N)c(=O)n2ccccc2c1C(=O)CCCc1ccccc1 [S-105, 3-Cyano-2-methylthio-1-(4-phenylbutyryl)-4H-quinolizin-4one]
[1]; Mus musculus, 96 h, 1.0 μg/ml
  inhibition at 1 µg/mL: 21%
[2]; Mus musculus, 96 h, 1.0 μg/ml
  inhibition at 1 µg/mL: 65%

## CSc1c(C#N)c(=O)n2ccccc2c1C(=O)CCCc1cccs1 [S-106, 3-Cyano-2-methylthio-1-(4-thienylbutyryl)-4H-quinolizin-4-one]
[1]; 1.0 μg/ml
  Inhibition % of IgG: 26%
[2]; 1.0 μg/ml
  Inhibition % of IgE: 61%
